Converted amounts (≈) assume the structure as drawn. Where two headings read alike, the source gives them in different places. Marks after values point to notes of the source that are not given here.
Key:
[1] = target: recombinant S. aureus MetRS enzyme (Staphylococcus aureus, UniProt A0A0H2XID2); test: Inhibition of SaMetRS, ATP depletion assay; assay type: biochemical
Summary of the method: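 N-terminal 6-His S. aureus MetRS (25 nM) was pre-incubated 15 min at room temperature with compound, 400 μg/mL E. coli tRNA and pyrophosphatase in HEPES-KOH pH 7.9, 2% DMSO. Reaction started with 150 nM ATP plus 20 μM L-methionine, ran 120 min; remaining ATP read by Kinase-Glo luminescence, IC50 by sigmoidal nonlinear regression.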

E. coli (ATCC 25922) = test: MIC susceptibility testing; assay type: cell-based; details: Escherichia coli, ATCC25922
Summary of the method: (§1)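 CLSI broth microdilution in triplicate, 5×10^5 CFU/mL final, ≤0.5% DMSO; MHB for S. aureus, CA-MHB for E. coli and E. faecium, CA-MHB plus 3% laked horse blood for S. pyogenes (5% CO2).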

E. faecium (ATCC 19434) = test: MIC susceptibility testing; assay type: cell-based
Summary of the method: as §1

[2] = test system: S. aureus VISA (ATCC 700699); test: MIC susceptibility testing; assay type: cell-based
Summary of the method: as §1

S. pyogenes (ATCC 19615) = test: MIC susceptibility testing; assay type: cell-based; details: Streptococcus pyogenes, ATCC19615, 18 h, read-out: S. pyogenes (ATCC 19615) MIC
[3] = test system: E. faecium VRE (ATCC 51559); test: MIC susceptibility testing; assay type: cell-based, Enterococcus faecium
Summary of the method: as §1

S. aureus = test: Serum shift assays (MIC with and without 50% human serum); assay type: cell-based, Staphylococcus aureus; details: for MIC: Staphylococcus aureus
Method: Serum shift assays: To assess the role of protein binding on compound susceptibility, MIC determinations were performed in triplicate in the presence and absence of 50% human serum. Serial threefold dilutions of 2× compound were generated in MHB and aliquoted onto 96 well plates with a DMSO limit of 0.5%. Bacteria were adjusted to 1*10^8 CFUs/mL in MHB, then further diluted 1:100 in MHB and 100% heat deactivated filter sterilized pooled human serum. Fifty microliters were added to each well of the corresponding plates, and the plates were incubated at 37° C. for ˜20 h. The lowest concentration causing ≥90% growth inhibition was recorded as the MIC.

S. aureus (ATCC 29213) [4] = test: Macromolecular synthesis assays (radiolabeled precursor incorporation); assay type: cell-based, Staphylococcus aureus; details: 30 minute incubations
Method: Macromolecular synthesis assays: Methods for measuring uptake of radiolabeled precursors by S. aureus (ATCC strain 29213) were adapted from previous publications. For these assays, bacteria were grown in defined media (DM): RPMI-1640 pH 7.3±0.1 without phenol red or L-glutamine (Lonza, Basel, Switzerland) supplemented with 4 mM L-glutamine (Lonza, Basel, Switzerland), 10 mM HEPES (Lonza, Basel, Switzerland), and 1% (w/v) D-glucose (Sigma Aldrich, St. Louis, Mo.). Fresh overnight cultures grown in DM at 37° C. were diluted 1:50 in pre-warmed DM and grown at 37° C. with shaking (150 rpm) until reaching an OD600 of 0.420 correlating to ˜1*10^9 CFUs/mL in mid-log phase. Each compound was assayed in quadruplicate with an 11-point three-fold serial dilution per radioisotope. A pre-warmed 96-well V-bottom plate (Corning 3894; Corning, Corning, Mass.) containing 25 μL of 4× final concentration of test compound was inoculated with 65 μL of mid-log phase bacteria (OD600 of 0.420). Both positive and negative control wells received 25 μL untreated DM and 65 μL of inoculum at the same time. After one minute, 10 μL of radiolabeled precursor (10× final concentration in DM) was added to samples and positive control wells. Final isotope concentrations for assay of [3H]-lysine (protein), [3H]-thymidine (DNA), and [3H]-uridine (RNA) were 10 μCi/mL, 2 μCi/mL, and 2 μCi/mL respectively. […] After termination, 10 μL of 10× radiolabeled precursor was added to negative control wells. The negative control consisted of adding radiolabeled precursors after termination of the bacterial incubation in order to represent background measurement of the isotope. Plates were sealed with plate tape (Thermo Fischer Scientific, Waltham, Mass.) and shaken at 250 rpm for one hour at room temperature. Aliquots of 125 μL were transferred from the 96-well V-bottom plates to 96-well filter plates (Merck Millipore, Billerica, Mass.). To bind macromolecules, the samples were passed through the filter membrane (0.45 μM hydrophilic Durapore PVDF membrane) with a vacuum manifold, then the filter was washed with 4×200 μL 10% TCA and 1×150 μL of 95% ethanol, and dried overnight in vacuum at room temperature. 25 μL Ultima Gold scintillation fluid (Perkin Elmer, Waltham, Mass.) was added to each well and DPM was quantified using a MicroBeta^2-2450 (Perkin Elmer, Waltham, Mass.) scintillation counter. The percent incorporation was determined by subtracting each well by the average negative background and dividing by the average positive incorporation×100. Error bars represent SEM between replicates. The assay was run twice with similar results.

[5] = test system: S. aureus MSSA (ATCC 29213); test: MIC susceptibility testing; assay type: cell-based, Staphylococcus aureus
E. faecalis (ATCC 29212) = test: MIC susceptibility testing; assay type: cell-based
[6] = test system: P. aeruginosa (ATCC 27853); test: MIC susceptibility testing; assay type: cell-based; details: Pseudomonas aeruginosa, ATCC27853
[7] = test system: S. aureus MRSA (ATCC 43300); test: MIC susceptibility testing; assay type: cell-based
Summary of the method: as §1

[8] = test system: S. pneumoniae (ATCC 49619); test: MIC susceptibility testing; assay type: cell-based; details: Streptococcus pneumoniae, ATCC49619, 18 h, read-out: S. pneumoniae (ATCC 49619) MIC
[9] = Cytotoxicity testing on mammalian cells (AlamarBlue, 48 hours); assay type: cell-based; details: human
Method: Cytotoxicity testing on mammalian cells: Compounds were assayed for cytotoxicity against CRL-8155 (human lymphoblasts) and HepG2 cells (human hepatocellular carcinoma). Cells were exposed to serial dilutions of compounds for 48 hours and toxicity was quantified using AlamarBlue (ThermoFisher Scientific, Waltham, Mass.). Assays were performed in quadruplicate and EC50 values were calculated with non-linear regression methods using software by the Collaborative Drug Database (Burlingame, Calif. www.collaborativedrug.com)

[10] = test system: S. aureus MRSA (ATCC 33591); test: MIC susceptibility testing; assay type: cell-based, Staphylococcus aureus; details: Staphylococcus aureus, read-out: S. aureus MRSA (ATCC 33591) MIC
Summary of the method: as §1

[11] = test system: S. aureus MSSA (ATCC 19636); test: MIC susceptibility testing; assay type: cell-based; details: Staphylococcus aureus, read-out: S. aureus MSSA (ATCC 19636) MIC
Summary of the method: as §1

[12] = test system: S. epidermidis (ATCC 12228); test: MIC susceptibility testing; assay type: cell-based; details: Staphylococcus epidermidis, ATCC12228, read-out: S. epidermidis (ATCC 12228) MIC
[13] = test system: S. epidermidis (ATCC 49134); test: MIC susceptibility testing; assay type: cell-based; details: Staphylococcus epidermidis, ATCC49134, read-out: S. epidermidis (ATCC 49134) MIC
S. aureus (ATCC 29213) [14] = test: MBC determinations (with MIC); assay type: cell-based; details: Staphylococcus aureus, ATCC29213
Method: Maximum DMSO concentrations were 0.5%. […] Each experiment's inoculum was serially diluted and plated on TSA to count competent cells. Cultures were incubated at 37° C. for at least 20 h and plated on TSA for CFU determination.
MIC/MBC: Measurements of minimum bactericidal concentrations (MBCs) were done with the S. aureus strain ATCC 29213 (Table 5).

[15] = value printed with (49), probably a literature reference; cited from earlier work
[16] = Data from Drugbank; cited from earlier work
[17] = Enterococcus faecium; read-out: E. faecium VRE (ATCC 51559) MIC
[18] = read-out: Avg MIC ± SEM (+50% serum), 50% human serum
[19] = read-out: Avg MIC ± SEM (no serum), no serum
[20] = recombinant enzyme, lower limit of detection 0.025 μM, read-out: MetRS S. aureus (enzyme) IC50
[21] = medium with 3% laked horse blood
[22] = CRL-8155 cells (human lymphoblasts), read-out: Mamm. cells (CRL8155) CC50
[23] = HepG2 cells (human hepatocellular carcinoma), read-out: Mamm. cells (HepG2) CC50

Sequence of recombinant S. aureus MetRS enzyme (A0A0H2XID2 2-657): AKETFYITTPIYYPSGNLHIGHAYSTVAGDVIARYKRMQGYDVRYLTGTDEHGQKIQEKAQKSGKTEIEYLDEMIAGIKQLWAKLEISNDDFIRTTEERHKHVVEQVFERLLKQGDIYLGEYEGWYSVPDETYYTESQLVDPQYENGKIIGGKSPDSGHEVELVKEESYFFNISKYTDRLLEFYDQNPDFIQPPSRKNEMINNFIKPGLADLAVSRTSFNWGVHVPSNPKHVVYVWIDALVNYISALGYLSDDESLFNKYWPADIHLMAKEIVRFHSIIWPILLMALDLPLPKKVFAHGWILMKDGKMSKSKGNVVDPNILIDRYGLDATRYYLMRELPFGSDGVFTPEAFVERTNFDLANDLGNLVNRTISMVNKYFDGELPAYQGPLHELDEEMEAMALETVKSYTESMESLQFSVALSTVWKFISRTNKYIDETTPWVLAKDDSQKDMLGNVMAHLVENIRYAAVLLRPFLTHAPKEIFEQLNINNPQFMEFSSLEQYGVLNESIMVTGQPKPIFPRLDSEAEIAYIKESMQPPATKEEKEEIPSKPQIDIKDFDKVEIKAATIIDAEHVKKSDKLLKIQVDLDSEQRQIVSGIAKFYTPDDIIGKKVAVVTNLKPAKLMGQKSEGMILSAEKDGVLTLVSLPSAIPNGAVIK

O=C(O)c1cn(C2CC2)c2cc(N3CCNCC3)c(F)cc2c1=O [CIP, ciprofloxacin]
IC50 [1]: > 10 µM | MIC (E. coli (ATCC 25922)): 0.039 µg/mL (≈ 0.118 µM) | MIC (E. faecium (ATCC 19434); Enterococcus faecium, ATCC19434; read-out: E. faecium (ATCC 19434) MIC): 5 µg/mL (≈ 15.1 µM) | MIC ([2]; Staphylococcus aureus; read-out: S. aureus VISA (ATCC 700699) MIC): > 10 µg/mL | MIC (S. pyogenes (ATCC 19615)): 0.625 µg/mL (≈ 1.89 µM) | MIC [3, 17]: 5 µg/mL (≈ 15.1 µM) | MIC (S. aureus; [18]): 0.152 ± 0.01 µg/mL | MIC (S. aureus; [19]): 0.145 ± 0.001 µg/mL | incorporation of 3H-thymidine (DNA synthesis) (S. aureus (ATCC 29213) [4]): selective inhibition of DNA synthesis

Clc1cc(Cl)cc(CNCCCNc2nc3ncccc3[nH]2)c1 [Compound 1575, N1-(3,5-dichlorobenzyl)—N3-(1H-imidazo[4,5-b]pyridin-2-yl)propane-1,3-diamine]
IC50 [1, 20]: < 0.025 µM | MIC ([5]; Staphylococcus aureus, 18 h; read-out: S. aureus MSSA (ATCC 29213) MIC): 10 µg/mL (≈ 28.6 µM) | MIC (E. coli (ATCC 25922)): > 10 µg/mL | MIC (E. faecalis (ATCC 29212); Enterococcus faecalis, ATCC29212; read-out: E. faecalis (ATCC 29212) MIC): 1.25 µg/mL (≈ 3.57 µM) | MIC [6]: > 10 µg/mL | MIC ([7]; Staphylococcus aureus; read-out: S. aureus MRSA (ATCC 43300) MIC): > 10 µg/mL | MIC [8, 21]: > 10 µg/mL | MIC (S. pyogenes (ATCC 19615); [21]): > 10 µg/mL | MIC [3, 17]: 0.625 µg/mL (≈ 1.78 µM) | CC50 at 48 h [9, 22]: 12.2 µg/mL (≈ 34.8 µM) | CC50 at 48 h [9, 23]: > 17.5 µg/mL

CN[C@H](CC(C)C)C(=O)N[C@H]1C(=O)N[C@@H](CC(N)=O)C(=O)N[C@H]2C(=O)N[C@H]3C(=O)N[C@H](C(=O)N[C@H](C(=O)O)c4cc(O)cc(O)c4-c4cc3ccc4O)[C@H](O)c3ccc(c(Cl)c3)Oc3cc2cc(c3O[C@@H]2O[C@H](CO)[C@@H](O)[C@H](O)[C@H]2O[C@H]2C[C@](C)(N)[C@H](O)[C@H](C)O2)Oc2ccc(cc2Cl)[C@H]1O [VAN, vancomycin]
IC50 [1, 20]: > 10 µM | MIC [10]: 1.25 µg/mL (≈ 0.863 µM) | MIC ([5]; Staphylococcus aureus, 18 h, read-out: S. aureus MSSA (ATCC 29213) MIC): 1.25 µg/mL (≈ 0.863 µM) | MIC (E. faecalis (ATCC 29212); Enterococcus faecalis, ATCC29212, read-out: E. faecalis (ATCC 29212) MIC): 5 µg/mL (≈ 3.45 µM) | MIC (E. faecium (ATCC 19434); Enterococcus faecium, ATCC19434, read-out: E. faecium (ATCC 19434) MIC): 0.625 µg/mL (≈ 0.431 µM) | MIC ([7]; Staphylococcus aureus, read-out: S. aureus MRSA (ATCC 43300) MIC): 1.25 µg/mL (≈ 0.863 µM) | MIC [11]: 1.25 µg/mL (≈ 0.863 µM) | MIC ([2]; Staphylococcus aureus, read-out: S. aureus VISA (ATCC 700699) MIC): 10 µg/mL (≈ 6.9 µM) | MIC [12]: 2.5 µg/mL (≈ 1.73 µM) | MIC [13]: 2.5 µg/mL (≈ 1.73 µM) | MIC [8]: 0.313 µg/mL (≈ 0.216 µM) | MIC (S. pyogenes (ATCC 19615)): 0.625 µg/mL (≈ 0.431 µM) | MIC ([3]; Enterococcus faecium, read-out: E. faecium VRE (ATCC 51559) MIC): > 10 µg/mL | CC50 at 48 h [9, 22]: > 145 µg/mL | CC50 at 48 h [9, 23]: > 145 µg/mL | MBC (S. aureus (ATCC 29213) [14]): 5 µg/mL (≈ 3.45 µM) | MIC (S. aureus (ATCC 29213) [14]): 1.25 µg/mL (≈ 0.863 µM) | Avg MIC ± SEM (+50% serum) (S. aureus; 50% human serum): 1.213 ± 0.12 µg/mL | MIC (S. aureus; [18]): 1.21 µg/mL | MIC (S. aureus; [19]): 0.714 ± 0.05 µg/mL | % binding to mouse plasma [15]: 25 (49) % | % binding to human plasma [16]: 55* %
